From patent publication US9040530B2, “1,2,4-triazine-6-carboxamide kinase inhibitors” (Portola Pharmaceuticals, Inc., priority 2012, dated 2015)

Target: T1, full length active recombinant SYK enzyme (Homo sapiens, UniProt P43405)
T1 construct: full length active recombinant SYK enzyme (Millipore, Calif.); purchased Millipore
Experiment: Inhibition of Syk tyrosine phosphorylation activity (LANCE TR-FRET kinase assay)
Format: biochemical
Settings: 1 nM active SYK enzyme, 550 nM SYK-substrate, 100 μM ATP, 1 hour at room temperature
Procedure: The in vitro and in vivo human Syk activities of the inventive compounds can be determined by various procedures known in the art, such as a test for their ability to inhibit the activity of human plasma Syk.
Inhibition of Syk Tyrosine Phosphorylation Activity
SYK tyrosine phosphorylation activity is measured using the LANCE™ Technology developed by Perkin Elmer Life and Analytical Sciences (Boston, Mass.). LANCE™ refers to homogeneous time resolved fluorometry applications using techniques such as time-resolved fluorescence resonance energy transfer assay (TR-FRET) (see generally for procedures in Perkin Elmer Application Note—How to Optimize a Tyrosine Kinase Assay Using Time Resolved Fluorescence-Based LANCE Detection, wwww.perkinelmer.com/lifesciences). The assay principle involves detection of a phosphorylated substrate using energy transfer from a phosphospecific europium-labeled antibody to streptavidin-allophycocyanin as an acceptor.
Molecules are reconstituted in 30% DMSO and serially diluted 1:3 with the final dilution containing DMSO in the absence of the candidate molecule. The final DMSO concentration in the assay is 3%. Kinase assays are performed as a two part reaction. […] The second reaction involves termination of the kinase reaction and the simultaneous addition of the detection reagents-europium-labeled anti-phosphotyrosine reagent (Eu-W1024-PY100, Perkin Elmer, Boston, Mass.) and Streptavidin-Allophycocyanin detection reagent (SA-APC, Prozyme, CA). The kinase reaction is performed in a black U-bottom 96-well microtitre plate. […] The reaction is allowed to proceed for 1 hour at room temperature. The quench buffer contains 100 mM Tris pH 7.5, 300 mM […], 20 mM EDTA, 0.02% Brij35, and 0.5% BSA. The detection reagents are added to the reaction mixture at the following dilutions-1:500 for Eu-W1024-PY100 and 1:250 for SA-APC. The kinase reaction is terminated by the addition of 50 μL quench buffer containing the detection reagents. The detection is allowed to proceed for 1 hr at room temperature. Detection of the phosphorlated substrate in the absence and presence of inhibitors is measured in the TR-FRET instrument, Analyst HT (Molecular Probes, Sunnyvale, Calif.) and the condition for measurements are set up using CriterionHost Release 2.0 (Molecular Probes, Sunnyvale, Calif.). […] IC50s were derived by non-linear regression analysis.

Row | SMILES | IC50
1 | NC(=O)c1nnc(N[C@@H]2CCCC[C@@H]2N)nc1Nc1ccc([N+]2([O-])CCCCC2)c(F)c1 [Example 32, 1-(4-((3-(((1R,2S)-2-aminocyclohexyl)amino)-6-carbamoyl-1,2,4-triazin-5-yl)amino)-2-fluorophenyl)piperidine 1-oxide] | 10 to 100 nM
2 | NC(=O)c1nnc(N[C@@H]2CCCC[C@@H]2N)nc1Nc1ccc(N2CCOCC2=O)c(F)c1 [Example 33, 3-(((1R,2S)-2-aminocyclohexyl)amino)-5-((3-fluoro-4-(3-oxomorpholino)phenyl)amino)-1,2,4-triazine-6-carboxamide] | 100 to 1000 nM
3 | NC(=O)c1nnc(N[C@@H]2CCCC[C@@H]2N)nc1Nc1ccc(N2CCOCC2=O)cc1 [Example 34, 3-(((1R,2S)-2-aminocyclohexyl)amino)-5-((4-(3-oxomorpholino)phenyl)amino)-1,2,4-triazine-6-carboxamide] | 100 to 1000 nM
4 | NC(=O)c1nnc(N[C@@H]2CCCC[C@@H]2N)nc1Nc1cnn2ccccc12 [Example 35, 3-(((1R,2S)-2-aminocyclohexyl)amino)-5-(pyrazolo[1,5-a]pyridin-3-ylamino)-1,2,4-triazine-6-carboxamide] | 1 to 10 nM
5 | NC(=O)c1nnc(N[C@@H]2CCCC(F)(F)[C@@H]2N)nc1Nc1cnn2ccccc12 [Example 36, 3-(((1R,2R)-2-amino-3,3-difluorocyclohexyl)amino)-5-(pyrazolo[1,5-a]pyridin-3-ylamino)-1,2,4-triazine-6-carboxamide] | 10 to 100 nM
6 | NC(=O)c1nnc(N[C@@H]2CCCC[C@@H]2N)nc1Nc1csc2ncccc12 [Example 37, 3-(((1R,2S)-2-aminocyclohexyl)amino)-5-(thieno[2,3-b]pyridin-3-ylamino)-1,2,4-triazine-6-carboxamide] | 1 to 10 nM
7 | NC(=O)c1nnc(N[C@@H]2CCCC(F)(F)[C@@H]2N)nc1Nc1csc2ncccc12 [Example 38, 3-(((1R,2R)-2-amino-3,3-difluorocyclohexyl)amino)-5-(thieno[2,3-b]pyridin-3-ylamino)-1,2,4-triazine-6-carboxamide] | 10 to 100 nM
8 | CC[C@@H](Nc1nnc(C(N)=O)c(Nc2csc3ncccc23)n1)C(N)=O [Example 39, (R)-3-((1-amino-1-oxobutan-2-yl)amino)-5-(thieno[2,3-b]pyridin-3-ylamino)-1,2,4-triazine-6-carboxamide] | 1 to 10 nM
9 | NC(=O)c1nnc(N[C@@H]2CCCC[C@@H]2N)nc1Nc1cccc2ncsc12 [Example 40, 3-(((1R,2S)-2-aminocyclohexyl)amino)-5-(benzo[d]thiazol-7-ylamino)-1,2,4-triazine-6-carboxamide] | 10 to 100 nM
10 | NC(=O)c1nnc(N[C@@H]2CCCC[C@@H]2N)nc1Nc1ccc2scnc2c1 [Example 41, 3-(((1R,2S)-2-aminocyclohexyl)amino)-5-(benzo[d]thiazol-5-ylamino)-1,2,4-triazine-6-carboxamide] | 1 to 10 nM
11 | NC(=O)c1nnc(N[C@@H]2CCCC[C@@H]2N)nc1Nc1ccc2ncsc2c1 [Example 42, 3-(((1R,2S)-2-aminocyclohexyl)amino)-5-(benzo[d]thiazol-6-ylamino)-1,2,4-triazine-6-carboxamide] | 1 to 10 nM
12 | NC(=O)c1nnc(N[C@@H]2CCCC(F)(F)[C@@H]2N)nc1Nc1ccc2ncsc2c1 [Example 43, 3-(((1R,2R)-2-amino-3,3-difluorocyclohexyl)amino)-5-(benzo[d]thiazol-6-ylamino)-1,2,4-triazine-6-carboxamide] | 10 to 100 nM
13 | NC(=O)c1nnc(N[C@@H]2CCCC[C@@H]2N)nc1Nc1ccc2nccn2c1 [Example 44, 3-(((1R,2S)-2-aminocyclohexyl)amino)-5-(imidazo[1,2-a]pyridin-6-ylamino)-1,2,4-triazine-6-carboxamide] | 10 to 100 nM
14 | NC(=O)c1nnc(N[C@@H]2CCCC[C@@H]2N)nc1Nc1cnc2ncccc2c1 [Example 45, 5-((1,8-naphthyridin-3-yl)amino)-3-(((1R,2S)-2-aminocyclohexyl)amino)-1,2,4-triazine-6-carboxamide] | 10 to 100 nM
15 | NC(=O)c1nnc(N[C@@H]2CCCC[C@@H]2N)nc1Nc1cccc2ncccc12 [Example 46, 3-(((1R,2S)-2-aminocyclohexyl)amino)-5-(quinolin-5-ylamino)-1,2,4-triazine-6-carboxamide] | 1 to 10 nM
16 | NC(=O)c1nnc(N[C@@H]2CCCC[C@@H]2N)nc1Nc1ccc2ncccc2c1 [Example 47, 3-(((1R,2S)-2-aminocyclohexyl)amino)-5-(quinolin-6-ylamino)-1,2,4-triazine-6-carboxamide] | 1 to 10 nM
17 | NC(=O)c1nnc(N[C@@H]2CCCC[C@@H]2N)nc1Nc1ccc2c(ccc[n+]2[O-])c1 [Example 48, 6-((3-(((1R,2S)-2-aminocyclohexyl)amino)-6-carbamoyl-1,2,4-triazin-5-yl)amino)quinoline 1-oxide] | 10 to 100 nM
18 | NC(=O)c1nnc(N[C@@H]2CCCC(F)(F)[C@@H]2N)nc1Nc1ccc2ncccc2c1 [Example 49, 3-(((1R,2R)-2-amino-3,3-difluorocyclohexyl)amino)-5-(quinolin-6-ylamino)-1,2,4-triazine-6-carboxamide] | 10 to 100 nM
19 | NC(=O)c1nnc(N[C@@H]2CCCC(F)(F)[C@@H]2N)nc1Nc1ccc2c(ccc[n+]2[O-])c1 [Example 50, 6-((3-(((1R,2R)-2-amino-3,3-difluorocyclohexyl)amino)-6-carbamoyl-1,2,4-triazin-5-yl)amino)quinoline 1-oxide] | 100 to 1000 nM
20 | CC[C@@H](Nc1nnc(C(N)=O)c(Nc2ccc3ncccc3c2)n1)C(N)=O [Example 51, (R)-3-((1-amino-1-oxobutan-2-yl)amino)-5-(quinolin-6-ylamino)-1,2,4-triazine-6-carboxamide] | 1 to 10 nM
21 | CC(C)[C@@H](Nc1nnc(C(N)=O)c(Nc2ccc3ncccc3c2)n1)C(N)=O [Example 52, (R)-3-((1-amino-3-methyl-1-oxobutan-2-yl)amino)-5-(quinolin-6-ylamino)-1,2,4-triazine-6-carboxamide] | 10 to 100 nM
22 | CC(C)C[C@@H](Nc1nnc(C(N)=O)c(Nc2ccc3ncccc3c2)n1)C(N)=O [Example 53, (R)-3-((1-amino-4-methyl-1-oxopentan-2-yl)amino)-5-(quinolin-6-ylamino)-1,2,4-triazine-6-carboxamide] | 1 to 10 nM
23 | CC(C)C[C@@H](Nc1nnc(C(N)=O)c(Nc2ccc3c(ccc[n+]3[O-])c2)n1)C(N)=O [Example 54, (R)-6-((3-((1-amino-4-methyl-1-oxopentan-2-yl)amino)-6-carbamoyl-1,2,4-triazin-5-yl)amino)quinoline 1-oxide] | 10 to 100 nM
24 | NC(=O)c1nnc(N[C@@H]2CCOC[C@@H]2N)nc1Nc1ccc2ncccc2c1 [Example 55, 3-(((3R,4R)-3-aminotetrahydro-2H-pyran-4-yl)amino)-5-(quinolin-6-ylamino)-1,2,4-triazine-6-carboxamide] | 1 to 10 nM
25 | NC(=O)c1nnc(N[C@H]2CC[C@@H](N)CC2)nc1Nc1ccc2ncccc2c1 [Example 56, 3-(((1S,4S)-4-aminocyclohexyl)amino)-5-(quinolin-6-ylamino)-1,2,4-triazine-6-carboxamide] | 10 to 100 nM
